The target of assay [1] is T1, Glucocorticoid Receptor (GR) (Homo sapiens, UniProt P04150).
T1 construct: A GAL4-responsive firefly luciferase reporter is the read-out; Some cells also express CD40, which is irrelevant for the free small molecules
T1 sequence (P04150 524-777 limits assumed): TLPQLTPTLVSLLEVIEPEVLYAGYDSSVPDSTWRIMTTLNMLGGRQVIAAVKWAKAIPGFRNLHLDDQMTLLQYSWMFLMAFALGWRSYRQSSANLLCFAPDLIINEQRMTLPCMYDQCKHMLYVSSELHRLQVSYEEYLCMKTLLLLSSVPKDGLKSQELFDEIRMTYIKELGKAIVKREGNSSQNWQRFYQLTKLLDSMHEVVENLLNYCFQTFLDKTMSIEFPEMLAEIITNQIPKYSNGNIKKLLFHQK
Kind of assay: GR reporter assay (GR-GAL4 Reporter (Luc)-HEK293 cells, Steady-Glo luciferase). Type of assay: cell-based. The conditions noted are these: 24 hours, read-out: GR reporter agonist. How it is done:
Certain GR agonist compounds of the present disclosure were tested in a GR reporter assay. Briefly, CD40 expressing GR-GAL4 Reporter (Luc)-HEK293 or parental GR-GAL4 reporter (Luc)-HEK293 cells were harvested from culture and seeded wells at a density of ˜30,000 cells per well in 45 μl of assay medium. Cells were incubated at 37° C. in a CO2 incubator overnight. […] The plates were incubated at 37° C. in a CO2 incubator for 24 hours. The Steady-Glo Luciferase Assay System (Promega), following manufacturer's instructions, was used to detect luminescence, which was measured using a luminometer.
The average background luminescence (cell-free control wells) was substracted from the luminescence reading of all wells. […] The EC50 value for each conjugate was determined in both CD40 expressing and parental GR-GAL4 Reporter (Luc)-HEK293 cells and the ratio was used to as a measure of linker stability and non-specific uptake.
(A reporter such as luciferase makes a cellular process visible.)

Assay [2] has as its system antigen-driven (FITC) ear inflammation. Briefly: FITC antigen-driven ear inflammation in mice (ear swelling). The conditions noted are these: 24 hours after FITC rechallenge, ip 20 mpk conjugate or antibody, 10 mpk dexamethasone. Type of assay: in vivo, Balb/c mice. How it is done:
Female Balb/c mice aged 6-7 weeks (Envigo Labs) were used. On day 0 ear thickness was measured in all mice using microcalipers. On day 0 mice were then sensitized to the antigen fluorescsein isothiocyanate (FITC) on a shaved flank by application of 50 microliters of 1% FITC in a formulation of 50% acetone:50% dibutyl phthalate. […] After 24 hours ear thickness was determined on the treated ear. […] Animals were bled for serum and sacrificed on day 9. […] Ear thickness and ELISA results were analyzed for differences in means with GraphPad Prism software by one-way ANOVA with Dunnett's multiple comparisons.

Assay [3] relates to Human monocyte derived dendritic cells and allogeneic CD3+ T cells. Kind of assay: Allo mixed lymphocyte assay (monocyte derived dendritic cells + allogeneic CD3+ T cells), cytokines by MSD ELISA. Type of assay: cell-based. The conditions noted are these: 100 nM, 48 hrs co-culture, mean of duplicates. How it is done: Human monocyte derived dendritic cells were derived in vitro from healthy human donor CD 14^+ monocytes, isolated from blood by standard cell marker negative selection with antibody coated beads, by culture of the monocytes under a standard dendritic cell generation protocol with added GM-CSF and IL4 for 6 days. […] Conjugates, protein, and small molecule controls were added at 100 nM immediately after. After 48 hrs of co-culture supernatants were collected from wells and cytokine levels for T cell derived cytokines (IL2, IFNγ) and dendritic cell derived cytokines (IL6, IL 12p40) were measured by MSD multiplex ELISA and plate reader per manufacturer's instructions (Meso Scale Diagnostics LLC).
A general note: ELISA stands for enzyme-linked immunosorbent assay.

The test system of assay [4] is parental GR-GAL4 Reporter (Luc)-HEK293 cell line (non-BAFF-expressing). Briefly: GR-GAL4 luciferase reporter assay, parental reporter cell line (Anti-BAFF conjugates). Type of assay: cell-based. How it is done:
(§1) To determine the level of GR agonism at the end of the incubation luciferase levels were determined with the Steady-Glo Luciferase Assay System (Promega, cat #E2520 or E2550). The results were analyzed with Graphpad Prism software v9.1 (Graphpad Inc) to determine EC50.
(§2) The memBAFF and parental GR-GAL4 luciferase cell reporter cell lines were plated in 96 well plates in complete DMEM media. […] To determine the level of GR agonism found for the different treatments, at the end of the incubation firefly luciferase was measured as per manufacturer's instructions with the Steady-Glo Luciferase Assay System (Promega, cat #E2520 or E2550) and then analyzed with Graphpad Prism software (Graphpad Inc v9.1) to determine EC50.

Assay [5] relates to GR-GAL4 Reporter (Luc)-HEK293 cell line stably expressing membrane human BAFF (memBAFF). Briefly: GR-GAL4 luciferase reporter assay, memBAFF reporter cell line. It is filed as cell-based. The method, then:
as §1, §2

For the compound `C[C@]12C=CC(=O)C=C1[C@@H](F)C[C@H]1[C@@H]3C[C@H]4O[C@@H](c5ccc(Oc6ccccc6)c(F)c5)O[C@@]4(C(=O)CO)[C@@]3(C)C[C@H](O)[C@@]12F` [Compound 18], the EC50 in assay [1] amounted to 1.2 nM.

With `C[C@]12C=CC(=O)C=C1[C@@H](F)C[C@H]1[C@@H]3C[C@H]4O[C@@H](c5cccc(F)c5)O[C@@]4(C(=O)CN)[C@@]3(C)C[C@H](O)[C@@]12F` [Compound 16], the EC50 in assay [1] is 39.1 nM.

Regarding `C[C@]12C=CC(=O)C=C1CC[C@@H]1[C@@H]2[C@@H](O)C[C@@]2(C)[C@H]1C[C@H]1O[C@@H](c3ccc4c(c3)OCO4)O[C@]12C(=O)CO` [Compound 6], the EC50 in assay [1] was found to be 25.2 nM. Still for that read-out and setting: the value for `C[C@]12C=CC(=O)C=C1CC[C@H]1[C@@H]3C[C@H]4O[C@@H](C5CCC5)O[C@@]4(C(=O)CO)[C@@]3(C)C[C@H](O)[C@@]12F` [Compound 51] was 1.2 nM. Still for that read-out and setting: in the case of `Cn1cc([C@@H]2O[C@@H]3C[C@H]4[C@@H]5CCC6=CC(=O)C=C[C@]6(C)[C@H]5[C@@H](O)C[C@]4(C)[C@]3(C(=O)CO)O2)cn1` [Compound 5] it was 49.1 nM; in that of `C[C@]12C=CC(=O)C=C1CC[C@@H]1[C@@H]2[C@@H](O)C[C@@]2(C)[C@H]1C[C@H]1O[C@@H](C3CCC3)O[C@]12C(=O)CO` [Compound 85], 4.9 nM. The same measure, in the same setting: in the case of `C[C@]12C=CC(=O)C=C1[C@@H](F)C[C@H]1[C@@H]3C[C@H]4O[C@@H](C5CC6(CCOCC6)C5)O[C@@]4(C(=O)CO)[C@@]3(C)C[C@H](O)[C@@]12F` [Compound 42] it was 9 nM; in that of `C[C@]12C=CC(=O)C=C1[C@@H](F)C[C@H]1[C@@H]3C[C@H]4O[C@@H](C56CC(C5)C6)O[C@@]4(C(=O)CO)[C@@]3(C)C[C@H](O)[C@@]12F` [Compound 15], 2.9 nM. Consider `C[C@]12C=CC(=O)C=C1[C@@H](F)C[C@H]1[C@@H]3C[C@H]4O[C@@H](C#Cc5ccccc5)O[C@@]4(C(=O)CO)[C@@]3(C)C[C@H](O)[C@@]12F` [Compound 40], for which, in assay [1], the EC50 came to 14.3 nM. Take `C[C@@H]1C[C@H]2[C@@H]3CCC4=CC(=O)C=C[C@]4(C)[C@@]3(F)[C@@H](O)C[C@]2(C)[C@@]1(O)C(=O)CO` [dexamethasone, reference compound]: in assay [2], the “Mean Swelling (mm)” value amounted to 0.07 mm. On to `C[C@]12C=CC(=O)C=C1CC[C@H]1[C@@H]3C[C@H]4O[C@@H](c5sccc5F)O[C@@]4(C(=O)CO)[C@@]3(C)C[C@H](O)[C@@]12F` [Compound 52a], for which the EC50 in assay [1] stood at 0.57 nM. Still for that read-out and setting: the value for `C[C@]12C=CC(=O)C=C1CC[C@@H]1[C@@H]2[C@@H](O)C[C@@]2(C)[C@H]1C[C@H]1O[C@@H](c3ccc(Cn4ccnn4)cc3)O[C@]12C(=O)CO` [Compound 2] was 17 nM.

For the compound `C[C@]12C=CC(=O)C=C1CC[C@@H]1[C@@H]2[C@@H](O)C[C@@]2(C)[C@H]1C[C@H]1O[C@@H](/C=C/c3cccc(N)c3)O[C@]12C(=O)CO` [Compound 67], the EC50 in assay [1] amounted to 172 nM. On the same count and under the same terms, the value for `C[C@]12C=CC(=O)C=C1CC[C@@H]1[C@@H]2[C@@H](O)C[C@@]2(C)[C@H]1C[C@H]1O[C@@H](c3ccc4c(c3)OCCO4)O[C@]12C(=O)CO` [Compound 7] was 47 nM.

On to `CCCC1O[C@@H]2C[C@H]3[C@@H]4CCC5=CC(=O)C=C[C@]5(C)[C@H]4[C@@H](O)C[C@]3(C)[C@]2(C(=O)CO)O1` (stereo partly shown) [budesonide, reference compound], for which, in assay [3], the “IFNγ % Media” value is 1 % Media, the “IL2 % Media” value is 14 % Media and the “IL12p40 % Media” value is reported as 1 % Media. For `C[C@]12C=CC(=O)C=C1[C@@H](F)C[C@H]1[C@@H]3C[C@H]4O[C@@H](c5cc6c(s5)CCCC6)O[C@@]4(C(=O)CO)[C@@]3(C)C[C@H](O)[C@@]12F` [Compound 43], in assay [1], the EC50 turned out to be 3.7 nM. Same read-out and setting: the value for `C[C@]12C=CC(=O)C=C1[C@@H](F)C[C@H]1[C@@H]3C[C@H]4O[C@@H](C5CCC5)O[C@@]4(C(=O)CO)[C@@]3(C)C[C@H](O)[C@@]12F` [Compound 14] was 0.68 nM; that for `C[C@]12C=CC(=O)C=C1[C@@H](F)C[C@H]1[C@@H]3C[C@H]4O[C@@H](c5ccc(OCC(F)(F)CN)c(F)c5)O[C@@]4(C(=O)CO)[C@@]3(C)C[C@H](O)[C@@]12F` [Compound 19] was 23.8 nM; that for `C[C@]12C=CC(=O)C=C1[C@@H](F)C[C@H]1[C@@H]3C[C@H]4O[C@@H](c5ccc(F)s5)O[C@@]4(C(=O)CO)[C@@]3(C)C[C@H](O)[C@@]12F` [Compound 27] was 0.46 nM. Still for that read-out and setting: in the case of `C[C@]12C=CC(=O)C=C1CC[C@@H]1[C@@H]2[C@@H](O)C[C@@]2(C)[C@H]1C[C@H]1O[C@@H](c3ccc(Cc4c[nH]nn4)cc3)O[C@]12C(=O)CO` [Compound 3] it was 25.1 nM. Still for that read-out and setting: in the case of `C[C@]12C=CC(=O)C=C1CC[C@@H]1[C@@H]2[C@@H](O)C[C@@]2(C)[C@H]1C[C@H]1O[C@@H](c3sccc3F)O[C@]12C(=O)CO` [Compound 53a] it was 0.89 nM. As to `C[C@]12C=CC(=O)C=C1[C@@H](F)C[C@H]1[C@@H]3C[C@H]4O[C@@H](c5sccc5F)O[C@@]4(C(=O)CO)[C@@]3(C)C[C@H](O)[C@@]12F` [Compound 30a], the EC50 in assay [1] is 0.44 nM. Regarding `C[C@@H](c1ccccc1)[C@@H]1O[C@@H]2C[C@H]3[C@@H]4C[C@H](F)C5=CC(=O)C=C[C@]5(C)[C@@]4(F)[C@@H](O)C[C@]3(C)[C@]2(C(=O)CO)O1` [Compound 50], in assay [1], the EC50 turned out to be 23 nM.

In the case of belimumab [Anti-BAFF (belimumab)], in assay [3], the “IFNγ % Media” value stood at 140 % Media, the “IL2 % Media” value came to 72 % Media and the “IL12p40 % Media” value was 139 % Media. Also, in assay [3] (LLOQ = lower limit of quantitation in the MSD assay), the “IL6 % Media” value is 121 % Media. As for belimumab [BAFF mAb (belimumab)], the EC50 in assay [4] (Table 22, 24 hour incubation, * = low confidence in EC50 due to curve fit) was greater than 500 nM; in assay [5] (Table 22, 24 hour incubation, * = low confidence in EC50 due to curve fit, read-out: EC50 (nM) Mem(BAFF) line), greater than 500 nM. Besides, the “GR agonism over the complete dilution series” value in assay [4] (parental line, 500 nM-[…]) is recorded as “no GR agonism”; in assay [5] (memBAFF line, 500 nM-[…]), “no GR agonism”. For `Cc1nn[nH]c1-c1ccc([C@@H]2O[C@@H]3C[C@H]4[C@@H]5CCC6=CC(=O)C=C[C@]6(C)[C@H]5[C@@H](O)C[C@]4(C)[C@]3(C(=O)CO)O2)cc1` [Compound 1], the EC50 in assay [1] turned out to be 22.2 nM. On the same count and under the same terms, the value for `C[C@]12C=CC(=O)C=C1CC[C@@H]1[C@@H]2[C@@H](O)C[C@@]2(C)[C@H]1C[C@H]1O[C@@H](/C=C/C3CC3)O[C@]12C(=O)CO` [Compound 58] was 32.6 nM; that for `Cn1nccc1[C@@H]1O[C@@H]2C[C@H]3[C@@H]4CCC5=CC(=O)C=C[C@]5(C)[C@H]4[C@@H](O)C[C@]3(C)[C@]2(C(=O)CO)O1` [Compound 4] was 21.8 nM; that for `C[C@]12C=CC(=O)C=C1CC[C@H]1[C@@H]3C[C@H]4O[C@@H](c5ccccc5)O[C@@]4(C(=O)CO)[C@@]3(C)C[C@H](O)[C@@]12F` [Compound 8] was 1.1 nM.
